From PubChem BioAssay AID248 (DTP/NCI, 2004)
Where “and” joins values, the source holds several entries; their conditions need not be identical. Equal entries are not always repeated. Toxic doses and inconclusive results are not listed. No stated cut-off is given here; in the data, active means T/C of 150% or more; inactive means T/C below 125%.

Tested on: L1210 leukemia ip in BDF1 mice, survival T/C
Assay: NCI In Vivo Anticancer Drug Screen. Data for tumor model L1210 Leukemia (intraperitoneal) in B6D2F1 (BDF1) mice
Conditions: endpoint: mean survival time, higher = longer survival
How it was run: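 Each compound was tested against a transplantable tumor grown in mice. The endpoint was survival, with treated animals benchmarked against vehicle controls as a simple ratio.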

[1] = dose: 100.0 mg/kg/injection, schedule: Q01DX009 (ip), vehicle: Klucel (hydroxypropylcellulose) (HPC)
[2] = dose: 100.0 mg/kg/injection, schedule: Q01DX009 (ip), vehicle: saline with Tween-80
[3] = dose: 200.0 mg/kg/injection, schedule: Q01DX009 (ip), vehicle: Klucel (hydroxypropylcellulose) (HPC)
[4] = dose: 200.0 mg/kg/injection, schedule: Q01DX009 (ip), vehicle: saline with Tween-80
[5] = dose: 400.0 mg/kg/injection, schedule: Q01DX009 (ip), vehicle: saline with Tween-80
[6] = dose: 50.0 mg/kg/injection, schedule: Q01DX009 (ip), vehicle: saline with Tween-80
[7] = dose: 100.0 mg/kg/injection, schedule: Q01DX001 (ip), vehicle: saline with Tween-80
[8] = dose: 200.0 mg/kg/injection, schedule: Q01DX001 (ip), vehicle: saline with Tween-80
[9] = dose: 100.0 mg/kg/injection, schedule: Q04DX003 (ip), vehicle: saline
[10] = dose: 200.0 mg/kg/injection, schedule: Q04DX003 (ip), vehicle: saline
[11] = dose: 400.0 mg/kg/injection, schedule: Q04DX003 (ip), vehicle: saline
[12] = dose: 100.0 mg/kg/injection, schedule: Q04DX003 (ip), vehicle: saline with Tween-80
[13] = dose: 400.0 mg/kg/injection, schedule: Q01DX009 (ip), vehicle: Klucel (hydroxypropylcellulose) (HPC)
[14] = dose: 200.0 mg/kg/injection, schedule: Q04DX003 (ip), vehicle: saline with Tween-80

Measured: T/C

COc1cc2c(cc1OC)C1CCN3C(=O)CCC3N1CC2 (stereo unspecified)
inactive: dose: 50.0 mg/kg/injection, schedule: Q01DX009 (ip), vehicle: Klucel (hydroxypropylcellulose) (HPC) 101 % of control | [1] 101 % of control | [2] 95 % of control | [3] 104 % of control | [4] 98 % of control | [5] 98 % of control

O=CNC(Cc1ccc(OCc2ccccc2)cc1)C(=O)O (stereo unspecified)
inactive: [6] 98 % of control | [7] 89 % of control | [2] 96 % of control | [8] 95 % of control | [4] 98 % of control | dose: 400.0 mg/kg/injection, schedule: Q01DX001 (ip), vehicle: saline with Tween-80 88 % of control

CC1C2CC3C(OC(=O)C13C)C2I (stereo unspecified)
inactive: dose: 100.0 mg/kg/injection, schedule: Q01DX001 (ip), vehicle: saline 110 % of control | dose: 200.0 mg/kg/injection, schedule: Q01DX001 (ip), vehicle: saline 96 % of control | dose: 400.0 mg/kg/injection, schedule: Q01DX001 (ip), vehicle: saline 113 % of control

CCNc1nnnn1CC
inactive: [9] 101 % of control | [10] 98 % of control | [11] 101 % of control

Cc1n[nH]c(=S)[nH]c1=S
inactive: [12] 97 % of control

c1ccc2[nH]c(N3CCOCC3)nc2c1
inactive: [6] 100 % of control | [2] 107 % of control | [9] 96 % of control | [4] 96 % of control | [10] 97 % of control | [11] 103 % of control

N#[N+]c1n[nH]nc1C(N)=O
inactive: dose: 25.0 mg/kg/injection, schedule: Q01DX Z (ip), vehicle: carboxymethylcellulose (CMC) 97 % of control | dose: 35.0 mg/kg/injection, schedule: Q01DX Z (ip), vehicle: carboxymethylcellulose (CMC) 95 % of control

CCC#CC(=O)OCCCCC
inactive: dose: 100.0 mg/kg/injection, schedule: Q04DX002 (ip), vehicle: saline 105 % of control | dose: 200.0 mg/kg/injection, schedule: Q04DX002 (ip), vehicle: saline 102 % of control | dose: 400.0 mg/kg/injection, schedule: Q04DX002 (ip), vehicle: saline 108 % of control

c1cc[c]([Sn]([O]B([O][Sn]([c]2ccccc2)([c]2ccccc2)[c]2ccccc2)[O][Sn]([c]2ccccc2)([c]2ccccc2)[c]2ccccc2)([c]2ccccc2)[c]2ccccc2)cc1
inactive: dose: 5.0 mg/kg/injection, schedule: Q04DX002 (ip), vehicle: saline with Tween-80 101 % of control | dose: 10.0 mg/kg/injection, schedule: Q04DX002 (ip), vehicle: saline with Tween-80 104 % of control | dose: 20.0 mg/kg/injection, schedule: Q04DX002 (ip), vehicle: saline with Tween-80 101 % of control

CCN(CC)Cc1cc(Nc2cc(C)nc3ccc(N(C)C)cc23)ccc1O
inactive: dose: 12.5 mg/kg/injection, schedule: Q01DX009 (ip), vehicle: saline 104 % of control | dose: 25.0 mg/kg/injection, schedule: Q01DX009 (ip), vehicle: saline 98 % of control | dose: 50.0 mg/kg/injection, schedule: Q01DX009 (ip), vehicle: saline 100 % of control

O=S1(=O)CCCCC1=C(c1ccccc1)c1ccccc1
inactive: dose: 100.0 mg/kg/injection, schedule: Q04DX002 (ip), vehicle: saline with Tween-80 89 % of control | dose: 200.0 mg/kg/injection, schedule: Q04DX002 (ip), vehicle: saline with Tween-80 89 % of control

O=[N+]([O-])c1ccc(F)c(CNc2ncnc3c2ncn3C2CCCCO2)c1 (stereo unspecified)
inactive: [1] 100 % of control | [3] 106 % of control | [13] 100 % of control

O=C(Nc1cc(C(F)(F)F)ccc1Cl)C(=O)Nc1cc(C(F)(F)F)ccc1Cl
inactive: dose: 100.0 mg/kg/injection, schedule: Q01DX009 (ip), vehicle: gum acacia 88 % of control | dose: 200.0 mg/kg/injection, schedule: Q01DX009 (ip), vehicle: gum acacia 93 % of control | dose: 400.0 mg/kg/injection, schedule: Q01DX009 (ip), vehicle: gum acacia 93 % of control

COc1ccc2nc3cc(Cl)ccc3c(NCC3(c4ccccc4)CCN(C)CC3)c2c1
inactive: dose: 12.5 mg/kg/injection, schedule: Q04DX003 (ip), vehicle: saline 97 % of control | dose: 25.0 mg/kg/injection, schedule: Q04DX003 (ip), vehicle: saline 90 % of control

CC1(C)OC(CI)C(COS(C)(=O)=O)O1 (stereo unspecified)
inactive: [12] 114 % of control | dose: 115.0 mg/kg/injection, schedule: Q01DX001 (ip), vehicle: steriod suspending solution 97 % of control | dose: 173.0 mg/kg/injection, schedule: Q01DX001 (ip), vehicle: steriod suspending solution 90 % of control | [14] 105 % of control | dose: 400.0 mg/kg/injection, schedule: Q04DX003 (ip), vehicle: saline with Tween-80 111 % of control

CC(Oc1cc(Cl)c(Cl)cc1Cl)C(=O)OCc1ccco1 (stereo unspecified)
inactive: [2] 110 % of control | dose: 100.0 mg/kg/injection, schedule: Q04DX002 (ip), vehicle: Klucel (hydroxypropylcellulose) (HPC) 100 % of control | [4] 100 % of control | dose: 200.0 mg/kg/injection, schedule: Q04DX002 (ip), vehicle: Klucel (hydroxypropylcellulose) (HPC) 103 % of control | [5] 104 % of control | dose: 400.0 mg/kg/injection, schedule: Q04DX002 (ip), vehicle: Klucel (hydroxypropylcellulose) (HPC) 100 % of control

Cc1c(Cl)c(Cl)c(C)c(Cl)c1Cl
inactive: [1] 86 % of control | dose: 100.0 mg/kg/injection, schedule: Q04DX003 (ip), vehicle: Klucel (hydroxypropylcellulose) (HPC) 95 % of control | [3] 89 % of control | dose: 200.0 mg/kg/injection, schedule: Q04DX003 (ip), vehicle: Klucel (hydroxypropylcellulose) (HPC) 101 % of control | [13] 87 % of control | dose: 400.0 mg/kg/injection, schedule: Q04DX003 (ip), vehicle: Klucel (hydroxypropylcellulose) (HPC) 93 % of control

COc1n[n+]([O-])c(Cl)c(/C=C\c2ccccc2)c1[N+](=O)[O-]
inactive: dose: 75.0 mg/kg/injection, schedule: Q04DX002 (ip), vehicle: Klucel (hydroxypropylcellulose) (HPC) 93 % of control | dose: 150.0 mg/kg/injection, schedule: Q04DX002 (ip), vehicle: Klucel (hydroxypropylcellulose) (HPC) 101 % of control | dose: 300.0 mg/kg/injection, schedule: Q04DX002 (ip), vehicle: Klucel (hydroxypropylcellulose) (HPC) 101 % of control

Cc1ccc(C)c(Cl)c1
inactive: dose: 50.0 mg/kg/injection, schedule: Q01DX001 (ip), vehicle: saline with Tween-80 95 % of control | dose: 50.0 mg/kg/injection, schedule: Q04DX003 (ip), vehicle: saline with Tween-80 101 % of control | [7] 97 % of control | [12] 100 % of control | [8] 97 % of control | [14] 97 % of control

COC(=O)c1ccccc1N(C)C(=O)Nc1ccc(F)cc1
inactive: dose: 100.0 mg/kg/injection, schedule: Q01DX001 (ip), vehicle: carboxymethylcellulose (CMC) 94 % of control | dose: 100.0 mg/kg/injection, schedule: Q01DX009 (ip), vehicle: carboxymethylcellulose (CMC) 92 % of control and 97 % of control | dose: 100.0 mg/kg/injection, schedule: Q04DX002 (ip), vehicle: carboxymethylcellulose (CMC) 92 % of control and 100 % of control | dose: 100.0 mg/kg/injection, schedule: Q04DX003 (ip), vehicle: carboxymethylcellulose (CMC) 104 % of control | dose: 200.0 mg/kg/injection, schedule: Q01DX001 (ip), vehicle: carboxymethylcellulose (CMC) 101 % of control | dose: 200.0 mg/kg/injection, schedule: Q01DX009 (ip), vehicle: carboxymethylcellulose (CMC) 87 % of control and 90 % of control | dose: 200.0 mg/kg/injection, schedule: Q04DX002 (ip), vehicle: carboxymethylcellulose (CMC) 98 % of control and 89 % of control | dose: 200.0 mg/kg/injection, schedule: Q04DX003 (ip), vehicle: carboxymethylcellulose (CMC) 102 % of control | dose: 400.0 mg/kg/injection, schedule: Q01DX001 (ip), vehicle: carboxymethylcellulose (CMC) 89 % of control | dose: 400.0 mg/kg/injection, schedule: Q01DX009 (ip), vehicle: carboxymethylcellulose (CMC) 98 % of control and 105 % of control | dose: 400.0 mg/kg/injection, schedule: Q04DX002 (ip), vehicle: carboxymethylcellulose (CMC) 98 % of control | dose: 400.0 mg/kg/injection, schedule: Q04DX003 (ip), vehicle: carboxymethylcellulose (CMC) 90 % of control

CCOC(=O)c1cn(C2OC(COC(=O)c3ccccc3)C(OC(=O)c3ccccc3)C2OC(=O)c2ccccc2)c(=O)nc1Nc1ccccc1Br (stereo unspecified)
inactive: dose: 100.0 mg/kg/injection, schedule: Q01DX005 (ip), vehicle: saline 97 % of control | dose: 200.0 mg/kg/injection, schedule: Q01DX005 (ip), vehicle: saline 97 % of control
